US20130039952A1, “CALCIPOTRIOL MONOHYDRATE NANOCRYSTALS” (LEO PHARMA A/S, priority 2009, published 2013)

Legend:
[1] = DSC analysis of the amount of amorphous calcipotriol; assay type: physicochemical; details: two batches, DSC at 100, 300 and 500° C./min under N2
Procedure: The amount of amorphous calcipotriol generated in this method was determined on two batches of calcipotriol nanocrystals prepared by the method using DSC analysis at a heating rate of 100° C., 300° C. and 500° C./min. under a N2 atmosphere. The instrument used for the analysis was a Perkin Elmer DSC 8500.

[2] = Particle size by dynamic light scattering; assay type: physicochemical; details: Zetasizer Nano ZS90, after high pressure homogenization
Text: The term “particle size distribution” is intended to mean the span between the smallest and largest calcipotriol monohydrate crystal as determined by dynamic light scattering (also known as photon correlation spectroscopy) using a Zetasizer Nano ZS or ZS90 according to the manufacturer's instructions (available from Malvern Instruments, UK). Dynamic light scattering determines the size of solid particles suspended in a liquid by illuminating the particles with a laser and analysing the intensity fluctuations in the scattered light resulting from the Brownian motions of the particles in the liquid. Intensity fluctuations are correlated to particle size in that larger particles move more slowly than smaller particles, i.e. the intensity fluctuation is slower.

[3] = test system: gene encoding cathelicidin; test: Cathelicidin gene activation in reconstructed human epidermis, ointments; assay type: cell-based; details: 5% vs 10% or 15% by weight of glycerol in the composition
Text: In psoriasis, the level of cathelicidin is increased in lesional skin of psoriasis patients. […] This finding has been utilized to develop an assay in which the uptake and biological activity of calcipotriol in human keratinocytes from the tested compositions has been determined by measuring the level of induction of the gene encoding cathelicidin.
Compositions A, C and D prepared as described in Example 2 above were applied topically in triplicate on reconstructed human epidermis consisting of normal human keratinocytes cultured for 12 days on 0.5 cm^2 polycarbonate filters (available from SkinEthic® Laboratories, Nice, France) in an amount of 10 μl. The tissue was treated for two days followed by separation of the epidermis from the polycarbonate filter and snap-frozen in liquid nitrogen. RNA was extracted from the cells and cDNA synthesized by conventional procedures. qPCR was then performed using the following assays from Applied Biosystems: CAMP Hs0018038_ml and GAPDH Hs99999905_ml. The expression levels of cathelicidin were normalized to GAPDH and a relative quantification was made by comparison with Daivonex® ointment.

[4] = test system: IL-1α; test: Release of IL-1α with glycerol in a calcipotriol ointment; details: 5%, 10% and 15% by weight of glycerol in a calcipotriol ointment
[5] = M. Hannuksela et al., Contact Dermatitis 1, 1975; cited from earlier work

Structure (SMILES): C=C1/C(=C\C=C2/CCC[C@]3(C)[C@@H]([C@H](C)/C=C/[C@@H](O)C4CC4)CC[C@@H]23)C[C@@H](O)C[C@@H]1O [calcipotriol monohydrate nanocrystals, Calcipotriol monohydrate]
- amount of amorphous calcipotriol [1]: only insignificant amounts of amorphous calcipotriol
- mean particle size [2]: 350-400 nm
- particle size distribution [2]: 200-600 nm

Structure (SMILES): OCC(O)CO [glycerol]
- expression of cathelicidin / biological activity of calcipotriol [3]: potentiating the biological activity of calcipotriol
- release of IL-1α [4]: reduce the release of IL-1α in a dose-dependent manner

Structure (SMILES): CC(O)CO (stereo not drawn) [propylene glycol]
- number of irritant reactions [5]: 12.5%
